Tests used:
Phytophthora infestans [1] = type: in vivo; conditions: 500 ppm, spray on tomato plants, contaminated after 24 hours, grading 5 days after contamination vs control plants
Pyrenophora teres = test: Example E: in vivo preventive test on Pyrenophora teres (net blotch on barley); conditions: 500 ppm, spray on barley plants, contaminated after 24 hours, grading 14 days after contamination vs control plants
Protocol: (§1) The active ingredients tested are prepared by homogenization in a mixture of acetone/tween/DMSO, and then diluted with water to obtain the desired active material concentration.
Barley plants (“Plaisant” variety), sown in starter cups on a 50/50 peat soil-pozzolana substrate and grown at 22° C., are treated at the 1-leaf stage (10 cm height) by spraying with the active ingredient prepared as described above. Plants, used as controls, are treated with the mixture of acetone/tween/DMSO/water not containing the active material.
After 24 hours, the plants are contaminated by spraying the leaves with an aqueous suspension of Pyrenophora teres spores (12 000 spores per ml). The spores are collected from a 12-day-old culture. The contaminated barley plants are incubated for 48 hours at 20° C. and at 100% relative humidity, and then for 12 days at 20° C. at 70-80% relative humidity.
Grading (% of efficacy) is carried out 14 days after the contamination, in comparison with the control plants.
(§2) Under these conditions, good (at least 70%) or total protection is observed at a dose of 500 ppm with the following compounds: […]

Septoria tritici = test: Example G: in vivo preventive test on Septoria tritici (leaf spot on wheat); conditions: 500 ppm, spray on wheat plants, contaminated after 24 hours, grading 24 days after contamination vs control plants
Protocol: as §1
Wheat plants (“Scipion” variety), sown in starter cups on a 50/50 peat soil-pozzolana substrate and grown at 22° C., are treated at the 1-leaf stage (10 cm height) by spraying with the active ingredient prepared as described above. Plants, used as controls, are treated with the mixture of acetone/tween/DMSO/water not containing the active material.
After 24 hours, the plants are contaminated by spraying the leaves with an aqueous suspension of cryopreserved Septoria tritici spores (500 000 spores per ml). The contaminated wheat plants are incubated for 72 hours at 18° C. and at 100% relative humidity, and then for 21 days at 90% relative humidity.
Grading (% of efficacy) is carried out 24 days after the contamination, in comparison with the control plants.
as §2

Phytophthora infestans [2] = type: in vivo; conditions: 100 ppm of active ingredient, spray on young tomato plants, inoculated one day after treatment, evaluated 7 days after inoculation
[3] = pH 2.7
Sphaerotheca fuliginea = test: Example D: in vivo preventive test on Sphaerotheca fuliginea (powdery mildew on cucurbits); conditions: 500 ppm, spray on gherkin plants, contaminated after 24 hours, grading 12 days after contamination vs control plants
Protocol: The active ingredients tested are prepared by homogenization in a mixture of acetone/tween/DMSO and then diluted with water to obtain the desired active material concentration.
Gherkin plants (“Vert petit de Paris” variety), sown in starter cups on a 50/50 peat soil-pozzolana substrate and grown at 24° C., are treated at the Z11 cotyledon stage by spraying with the active ingredient prepared as described above. Plants, used as controls, are treated with the mixture of acetone/tween/DMSO/water not containing the active material.
After 24 hours, the plants are contaminated by spraying the cotyledons with an aqueous suspension of Sphaerotheca fuliginea spores (100 000 spores per ml). The spores are collected from infected plants. The contaminated gherkin plants are incubated at about 20° C. and at 70-80% relative humidity.
Grading (% of efficacy) is carried out 12 days after the contamination, in comparison with the control plants.
as §2

Alternaria brassicae = test: Example B: in vivo preventive test on Alternaria brassicae (leaf spot on radish); conditions: 500 ppm, spray on radish plants, contaminated after 24 hours, grading 6 days after contamination vs control plants
Protocol: as §1
Radish plants (“Pernod Clair” variety), sown in starter cups on a 50/50 peat soil-pozzolana substrate and grown at 17° C., are treated at the cotyledon stage by spraying with the active ingredient prepared as described above. Plants, used as controls, are treated with the mixture of acetone/tween/DMSO/water not containing the active material.
After 24 hours, the plants are contaminated by spraying the cotyledons with an aqueous suspension of Alternaria brassicae spores (50 000 spores per ml). The spores are collected from a 15-day-old culture. The contaminated radish plants are incubated at 20° C. and at 100% relative humidity.
Grading (% of efficacy) is carried out 6 days after the contamination, in comparison with the control plants.
as §2

With `CC(COc1ccccc1)OC(=O)Nc1nc(CON=C(c2ccccc2)c2nc(=O)on2C)cs1` (centres unmarked) [Example 28] the “% efficacy” value (Phytophthora infestans [1]) was 97%, the “% efficacy” value (Pyrenophora teres) was 85% and the “% efficacy” value (Septoria tritici) was 75%. The Eff. % (Phytophthora infestans [2]) was 92% and the LogP [3] was 3.46.
For `Cn1oc(=O)nc1C(=NOCc1csc(NC(=O)OCCOc2ccccc2)n1)c1ccccc1` [Example 21], the “% efficacy” value (Phytophthora infestans [1]) was 98%, the “% efficacy” value (Sphaerotheca fuliginea) was 75% and the “% efficacy” value (Pyrenophora teres) was 80%. The “% efficacy” value (Septoria tritici) was 75%, the Eff. % (Phytophthora infestans [2]) was 92% and the LogP [3] was 3.19.
In the case of `COc1cccc(/C(=N/OCc2csc(NC(=O)C3CCc4ccccc4O3)n2)c2nc(=O)on2C)c1` (racemic) [Example 35], the “% efficacy” value (Phytophthora infestans [1]) is reported as 90%, the “% efficacy” value (Alternaria brassicae) is reported as 100% and the LogP [3] is reported as 3.44.

Reference: patent publication US9326515B2, “Fungicidal 3-[(1,3-thiazol-4-ylmethoxyimino)(phenyl)methyl]-2-substituted-1,2,4-oxadiazol-5(2H)-one derivatives” (BAYER INTELLECTUAL PROPERTY GMBH, priority 2011, dated 2016)
